The values that follow come from patent US20250171437A1 (Agios Pharmaceuticals,Inc., priority 2022, published 2025).

For the assay, the target named is T1, human PAH with the R408W mutation (A375 R408W cells) (Homo sapiens, UniProt P00439, R408W).
T1 construct: expressed in transfected cells
T1 sequence (P00439 1-452 R408W): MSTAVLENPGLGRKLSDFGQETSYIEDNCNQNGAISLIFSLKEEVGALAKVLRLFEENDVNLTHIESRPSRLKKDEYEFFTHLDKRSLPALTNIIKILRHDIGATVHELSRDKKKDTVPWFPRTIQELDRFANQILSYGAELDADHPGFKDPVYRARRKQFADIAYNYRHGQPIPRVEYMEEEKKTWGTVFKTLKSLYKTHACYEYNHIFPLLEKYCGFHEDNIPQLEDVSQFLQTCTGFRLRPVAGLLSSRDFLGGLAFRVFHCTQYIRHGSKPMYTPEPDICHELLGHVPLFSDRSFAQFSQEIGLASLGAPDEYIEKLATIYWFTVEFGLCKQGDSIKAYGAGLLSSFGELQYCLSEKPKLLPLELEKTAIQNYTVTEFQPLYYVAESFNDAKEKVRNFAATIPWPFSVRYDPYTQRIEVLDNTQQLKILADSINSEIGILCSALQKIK
In words: Cell Based Phenylalanine Flux Assay. Particulars: 24 hrs with compound, then 20 μM sepiapterin and 800 μM 13C9,15N-Phenylalanine for 4 hours, 13C-Tyrosine by LC-MS, average where tested multiple times. In short, it runs like this:
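Phenylalanine-to-tyrosine flux is measured in A375 cells carrying stable human R408W PAH. After 24 h compound exposure, 13C9,15N-Phe (800 μM) with sepiapterin (20 μM) is supplied for 4 h and media 13C-Tyr is read by LC-MS; AC50s are binned.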

Where [1] appears, read: A375 cells expressing R408W PAH.

Structures are written as SMILES.

On to `Cn1ccc(-c2nnc(C(=O)N3CCc4[nH]cnc4[C@H]3c3nc4cccc(C(F)(F)F)c4o3)o2)n1` [Example 832, (S)-(5-(1-methyl-1H-pyrazol-3-yl)-1,3,4-oxadiazol-2-yl)(4-(7-(trifluoromethyl)benzo[d]oxazol-2-yl)-6,7-dihydro-1H-imidazo[4,5-c]pyridin-5(4H)-yl)methanone], for which, where the note is “A375 R408W cells”, the AC50 was not above 0.5 µM.

For the compound `CC(C)(O)c1ncc(C(=O)N2CCc3[nH]cnc3C2c2nc3c(F)cc(F)cc3o2)o1` (centres unmarked), under setting [1], the AC50 lay in the range of 1 to 5 µM. Still for that read-out and setting: the result for `Cn1nc(C(C)(C)C)cc1C(=O)N1CCc2[nH]cnc2C1c1nc2ccccc2o1` (centres unmarked) reads 1 to 5 µM. Turning to `COc1cc(F)c2oc([C@H]3c4nc[nH]c4CCN3C(=O)c3oc(C(C)(C)O)nc3C(F)F)nc2c1` [Example 644, (R)-(4-(difluoromethyl)-2-(2-hydroxypropan-2-yl)oxazol-5-yl)(4-(7-fluoro-5-methoxybenzo[d]oxazol-2-yl)-6,7-dihydro-1H-imidazo[4,5-c]pyridin-5(4H)-yl)methanone], the half-maximal activity concentration (AC50) (A375 R408W cells) was not above 0.5 µM.

Turning to `O=C(C1CC1(F)F)N1CCc2[nH]cnc2C1c1nc2cc(F)ccc2o1` (centres unmarked), the AC50 under setting [1] was not below 5 µM. For `Cc1ccc2oc([C@H]3c4nc[nH]c4CCN3C(=O)c3nnc(-c4ncccc4F)o3)nc2c1` [Example 654, (R)-(5-(3-fluoropyridin-2-yl)-1,3,4-oxadiazol-2-yl)(4-(5-methylbenzo[d]oxazol-2-yl)-6,7-dihydro-1H-imidazo[4,5-c]pyridin-5(4H)-yl)methanone], where the note is “A375 R408W cells”, the AC50 is 1 to 5 µM.

Regarding `CC(C)(O)c1nc(C(F)F)c(C(=O)N2CCc3[nH]cnc3[C@@H]2c2nc3cc(Br)ccc3o2)o1` [Example 416, [(4R)-4-(5-bromo-1,3-benzoxazol-2-yl)-1,4,6,7-tetrahydroimidazo[4,5-c]pyridin-5-yl]-[4-(difluoromethyl)-2-(1-hydroxy-1-methyl-ethyl)oxazol-5-yl]methanone], the AC50 (A375 R408W cells) lay within 0.5 to 1 µM.

For the compound `O=C(c1ocnc1C(F)F)N1CCc2[nH]cnc2[C@@H]1c1nc2c(F)cccc2o1` [Example 170, (R)-(4-(difluoromethyl)oxazol-5-yl)(4-(4-fluorobenzo[d]oxazol-2-yl)-6,7-dihydro-1H-imidazo[4,5-c]pyridin-5(4H)-yl)methanone], the concentration at half-maximal activity (AC50) (A375 R408W cells) was in the range of 0.5 to 1 µM. Take `O=C(c1nnc(-c2ncccc2F)o1)N1CCc2[nH]cnc2C1c1nc2cc(C(F)(F)F)ccc2o1` (centres unmarked): the half-maximal activity concentration (AC50) under setting [1] is 1 to 5 µM. With `COc1cccc2nc([C@@H]3c4nc[nH]c4CCN3C(=O)c3nc(C(F)(F)F)nn3C)oc12` [Example 697, (S)-(4-(7-methoxybenzo[d]oxazol-2-yl)-6,7-dihydro-1H-imidazo[4,5-c]pyridin-5(4H)-yl)(1-methyl-3-(trifluoromethyl)-1H-1,2,4-triazol-5-yl)methanone], where the note is “A375 R408W cells”, the AC50 was in the range of 0.5 to 1 µM. Consider `Cc1cccc2nc(C3c4nc[nH]c4CCN3C(=O)c3nc(C(C)(C)C)nn3C)oc12` (centres unmarked), for which, under setting [1], the AC50 was 1 to 5 µM.

In the case of `Cc1ccc2oc([C@@H]3c4nc[nH]c4CCN3C(=O)c3nnc(-c4ccccn4)o3)nc2c1` [Example 97, (S)-(4-(5-methylbenzo[d]oxazol-2-yl)-6,7-dihydro-1H-imidazo[4,5-c]pyridin-5(4H)-yl)(5-(pyridin-2-yl)-1,3,4-oxadiazol-2-yl)methanone], the concentration at half-maximal activity (AC50) (A375 R408W cells) was not above 0.5 µM.

On to `CC(C)(O)c1nc(C(F)F)c(C(=O)N2CCc3[nH]cnc3[C@@H]2c2nc3cc(F)cc(F)c3o2)o1` [Example 308, (R)-(4-(5,7-difluorobenzo[d]oxazol-2-yl)-6,7-dihydro-1H-imidazo[4,5-c]pyridin-5(4H)-yl)(4-(difluoromethyl)-2-(2-hydroxypropan-2-yl)oxazol-5-yl)methanone], for which the AC50 (A375 R408W cells) was not above 0.5 µM. For `CC(C)(C)c1nc(C(F)F)c(C(=O)N2CCc3[nH]cnc3[C@H]2c2nc3cc(F)ccc3o2)o1` [Example 753, (S)-(2-(tert-butyl)-4-(difluoromethyl)oxazol-5-yl)(4-(5-fluorobenzo[d]oxazol-2-yl)-6,7-dihydro-1H-imidazo[4,5-c]pyridin-5(4H)-yl)methanone], the AC50 (A375 R408W cells) is not above 0.5 µM. For `O=C(c1cnn(-c2ccccn2)c1Cl)N1CCc2[nH]cnc2C1c1nc2cc(F)ccc2o1` (centres unmarked), the AC50 under setting [1] lay within 1 to 5 µM. As to `COc1ccc2oc([C@@H]3c4nc[nH]c4CCN3C(=O)c3ccnn3C(F)F)nc2c1` [Example 551, (S)-(1-(difluoromethyl)-1H-pyrazol-5-yl)(4-(5-methoxybenzo[d]oxazol-2-yl)-6,7-dihydro-1H-imidazo[4,5-c]pyridin-5(4H)-yl)methanone], the AC50 (A375 R408W cells) is 0.5 to 1 µM. Still for that read-out and setting: the result for `Cc1c(F)ccc2oc([C@H]3c4nc[nH]c4CCN3C(=O)c3oc(C(C)(C)O)nc3C(F)F)nc12` [Example 720, (R)-(4-(difluoromethyl)-2-(2-hydroxypropan-2-yl)oxazol-5-yl)(4-(5-fluoro-4-methylbenzo[d]oxazol-2-yl)-6,7-dihydro-1H-imidazo[4,5-c]pyridin-5(4H)-yl)methanone] reads 0.5 to 1 µM. Turning to `CN(C)Cc1nnc(C(=O)N2CCc3[nH]cnc3[C@@H]2c2nc3cc(F)ccc3o2)o1` (single isomer, unassigned), the AC50 under setting [1] was not below 5 µM.

Regarding `O=C(c1nnc(-c2ccccn2)o1)N1CCc2[nH]cnc2[C@H]1c1nc2cc(F)ccc2o1` [Example 39, (S)-(4-(5-fluorobenzo[d]oxazol-2-yl)-6,7-dihydro-1H-imidazo[4,5-c]pyridin-5(4H)-yl)(5-(pyridin-2-yl)-1,3,4-oxadiazol-2-yl)methanone], the AC50 (A375 R408W cells) was in the range of 0.5 to 1 µM.

For the compound `Cc1nc([C@@H](C)O)oc1C(=O)N1CCc2[nH]cnc2[C@@H]1c1nc2cccc(F)c2o1` [Example 218, ((R)-4-(7-fluorobenzo[d]oxazol-2-yl)-6,7-dihydro-1H-imidazo[4,5-c]pyridin-5(4H)-yl)(2-((R)-1-hydroxyethyl)-4-methyloxazol-5-yl)methanone], the AC50 (A375 R408W cells) is 1 to 5 µM. As for `O=C(c1cnn2cc(N3CCOCC3)ccc12)N1CCc2[nH]cnc2[C@H]1c1nc2c(F)cccc2o1` [Example 504, (S)-(4-(4-fluorobenzo[d]oxazol-2-yl)-6,7-dihydro-1H-imidazo[4,5-c]pyridin-5(4H)-yl)(6-morpholinopyrazolo[1,5-a]pyridin-3-yl)methanone], the AC50 (A375 R408W cells) fell in the range of 0.5 to 1 µM. Regarding `O=C(c1ccnn1C(F)(F)F)N1CCc2[nH]cnc2[C@H]1c1nc2c(F)cccc2o1` [Example 293, (S)-(4-(4-fluorobenzo[d]oxazol-2-yl)-6,7-dihydro-1H-imidazo[4,5-c]pyridin-5(4H)-yl)(1-(trifluoromethyl)-1H-pyrazol-5-yl)methanone], where the note is “A375 R408W cells”, the half-maximal activity concentration (AC50) was not above 0.5 µM.

Turning to `O=C(c1cnn2cc(N3CCOCC3)ccc12)N1CCc2[nH]cnc2C1c1nc2cc(F)ccc2o1` (centres unmarked), under setting [1], the AC50 was 1 to 5 µM. With `O=C(c1cnn2cc(-c3ccccn3)ccc12)N1CCc2[nH]cnc2[C@@H]1c1nc2c(F)cccc2o1` [Example 544, (R)-(4-(4-fluorobenzo[d]oxazol-2-yl)-6,7-dihydro-1H-imidazo[4,5-c]pyridin-5(4H)-yl)(6-(pyridin-2-yl)pyrazolo[1,5-a]pyridin-3-yl)methanone], the half-maximal activity concentration (AC50) (A375 R408W cells) lay in the range of 1 to 5 µM. On to `Cc1nc(-c2ccccn2)sc1C(=O)N1CCc2[nH]cnc2C1c1nc2cc(F)ccc2o1` (centres unmarked), for which the concentration at half-maximal activity (AC50) under setting [1] is not below 5 µM. Take `CC(C)(O)c1nc(C(F)F)c(C(=O)N2CCc3[nH]cnc3[C@@H]2c2nc3ccc(F)cc3o2)o1` [Example 188, (R)-(4-(difluoromethyl)-2-(2-hydroxypropan-2-yl)oxazol-5-yl)(4-(6-fluorobenzo[d]oxazol-2-yl)-6,7-dihydro-1H-imidazo[4,5-c]pyridin-5(4H)-yl)methanone]: where the note is “A375 R408W cells”, the AC50 was 1 to 5 µM. As to `COc1cccc2nc([C@@H]3c4nc[nH]c4CCN3C(=O)c3ccnn3C(C)C)oc12` [Example 765, (S)-(1-isopropyl-1H-pyrazol-5-yl)(4-(7-methoxybenzo[d]oxazol-2-yl)-6,7-dihydro-1H-imidazo[4,5-c]pyridin-5(4H)-yl)methanone], the AC50 (A375 R408W cells) was not above 0.5 µM. On to `Cc1ccc2oc([C@@H]3c4nc[nH]c4CCN3C(=O)c3ocnc3C(F)(F)F)nc2c1` [Example 63, (S)-(4-(5-methylbenzo[d]oxazol-2-yl)-6,7-dihydro-1H-imidazo[4,5-c]pyridin-5(4H)-yl)(4-(trifluoromethyl)oxazol-5-yl)methanone], for which the AC50 (A375 R408W cells) was not above 0.5 µM.

Regarding `Cc1nc(-c2cnn(C)c2)oc1C(=O)N1CCc2[nH]cnc2C1c1nc2cc(F)ccc2o1` (centres unmarked), under setting [1], the concentration at half-maximal activity (AC50) was in the range of 1 to 5 µM. Turning to `CCOC(=O)N1CCN(c2ccc3c(C(=O)N4CCc5[nH]cnc5C4c4nc5cc(F)ccc5o4)cnn3c2)CC1` (centres unmarked), the AC50 under setting [1] is 1 to 5 µM. For the compound `Cc1ccc2nc([C@H]3c4nc[nH]c4CCN3C(=O)c3nnc(-c4ccn(C)n4)o3)oc2c1` [Example 358, (R)-(5-(1-methyl-1H-pyrazol-3-yl)-1,3,4-oxadiazol-2-yl)(4-(6-methylbenzo[d]oxazol-2-yl)-6,7-dihydro-1H-imidazo[4,5-c]pyridin-5(4H)-yl)methanone], the AC50 (A375 R408W cells) is 1 to 5 µM. Consider `CN1CCN(c2ccc3c(C(=O)N4CCc5[nH]cnc5[C@H]4c4nc5cc(F)ccc5o4)cnn3c2)CC1` [Example 65, (S)-(4-(5-fluorobenzo[d]oxazol-2-yl)-6,7-dihydro-1H-imidazo[4,5-c]pyridin-5(4H)-yl)(6-(4-methylpiperazin-1-yl)pyrazolo[1,5-a]pyridin-3-yl)methanone], for which the AC50 (A375 R408W cells) lay within 1 to 5 µM.

In general, AC50 refers to the concentration giving half of the maximal activity seen.
